# In PubChem BioAssay AID328 (DTP/NCI, 2004):
# Several values for one entry are separate records, joined by “and”; a condition that tells them apart may be missing. Equal entries are not always repeated. Inconclusive results and toxic doses are left out.
# System: BDF1 mice, P388 leukemia ip, median survival T/C
# Experiment: NCI In Vivo Anticancer Drug Screen. Data for tumor model P388 Leukemia (intraperitoneal) in B6D2F1 (BDF1) mice
# Conditions: endpoint: median survival time, higher = longer survival
# Protocol: The antitumor activity of compounds was measured in mice bearing transplantable tumors. Survival or tumor size were measured and the results are expressed as the measurement made in the treated group (T) divided by the measurement made in the vehicle treated control group (C). The tumor model used in this assay is P388 Leukemia (intraperitoneal) in B6D2F1 (BDF1) mice
# [1] = dose: 25.0 mg/kg/injection, schedule: Q01DX009 (ip), vehicle: saline with Tween-80
# [2] = dose: 100.0 mg/kg/injection, schedule: Q01DX009 (ip), vehicle: Klucel (hydroxypropylcellulose) (HPC)
# [3] = dose: 100.0 mg/kg/injection, schedule: Q04DX003 (ip), vehicle: Klucel (hydroxypropylcellulose) (HPC)
# [4] = dose: 200.0 mg/kg/injection, schedule: Q04DX003 (ip), vehicle: Klucel (hydroxypropylcellulose) (HPC)
# [5] = dose: 200.0 mg/kg/injection, schedule: Q01DX009 (ip), vehicle: saline
# [6] = dose: 100.0 mg/kg/injection, schedule: Q04DX003 (ip), vehicle: saline with Tween-80
# [7] = dose: 200.0 mg/kg/injection, schedule: Q04DX003 (ip), vehicle: saline with Tween-80
# [8] = dose: 200.0 mg/kg/injection, schedule: Q01DX009 (ip), vehicle: Klucel (hydroxypropylcellulose) (HPC)
# [9] = dose: 100.0 mg/kg/injection, schedule: Q01DX009 (ip), vehicle: saline with Tween-80
# [10] = dose: 200.0 mg/kg/injection, schedule: Q01DX009 (ip), vehicle: saline with Tween-80
# [11] = dose: 50.0 mg/kg/injection, schedule: Q01DX009 (ip), vehicle: saline with Tween-80
# [12] = dose: 100.0 mg/kg/injection, schedule: Q01DX009 (ip), vehicle: saline
# [13] = dose: 400.0 mg/kg/injection, schedule: Q01DX009 (ip), vehicle: saline
smiles,measurement,setting,value
CCOC(=O)C1CNc2ccccc2N1 (configuration not stated),T/C,"dose: 7.18 mg/kg/injection, schedule: Q04DX003 (ip), vehicle: Klucel (hydroxypropylcellulose) (HPC)",110 % of control
same,T/C,"dose: 14.37 mg/kg/injection, schedule: Q04DX003 (ip), vehicle: Klucel (hydroxypropylcellulose) (HPC)",105 % of control
same,T/C,"dose: 28.75 mg/kg/injection, schedule: Q01DX001 (ip), vehicle: Klucel (hydroxypropylcellulose) (HPC)",91 % of control
same,T/C,"dose: 28.75 mg/kg/injection, schedule: Q04DX003 (ip), vehicle: Klucel (hydroxypropylcellulose) (HPC)",105 % of control
same,T/C,"dose: 57.5 mg/kg/injection, schedule: Q01DX001 (ip), vehicle: Klucel (hydroxypropylcellulose) (HPC)",95 % of control
same,T/C,"dose: 57.5 mg/kg/injection, schedule: Q04DX003 (ip), vehicle: Klucel (hydroxypropylcellulose) (HPC)",109 % of control
same,T/C,"dose: 75.0 mg/kg/injection, schedule: Q01DX009 (ip), vehicle: Klucel (hydroxypropylcellulose) (HPC)",105 % of control
same,T/C,"dose: 115.0 mg/kg/injection, schedule: Q01DX001 (ip), vehicle: Klucel (hydroxypropylcellulose) (HPC)",91 % of control
same,T/C,"dose: 115.0 mg/kg/injection, schedule: Q01DX009 (ip), vehicle: Klucel (hydroxypropylcellulose) (HPC)",110 % of control
same,T/C,"dose: 115.0 mg/kg/injection, schedule: Q04DX003 (ip), vehicle: Klucel (hydroxypropylcellulose) (HPC)",95 % of control
same,T/C,"dose: 170.0 mg/kg/injection, schedule: Q01DX001 (ip), vehicle: Klucel (hydroxypropylcellulose) (HPC)",104 % of control
O=NN(CCF)C(=O)NC1CCCCC1,T/C,"dose: 1.0 mg/kg/injection, schedule: Q04DX003 (ip), vehicle: saline with Tween-80",90 % of control
same,T/C,"dose: 2.0 mg/kg/injection, schedule: Q04DX003 (ip), vehicle: saline with Tween-80",105 % of control
same,T/C,"dose: 4.0 mg/kg/injection, schedule: Q04DX003 (ip), vehicle: saline with Tween-80",120 % of control
same,T/C,"dose: 6.25 mg/kg/injection, schedule: Q01DX009 (ip), vehicle: saline with Tween-80",217 % of control
same,T/C,"dose: 12.5 mg/kg/injection, schedule: Q01DX009 (ip), vehicle: saline with Tween-80",260 % of control
same,T/C,"dose: 16.5 mg/kg/injection, schedule: Q04DX003 (ip), vehicle: saline with Tween-80",272 % of control
same,T/C,[1],121 % of control
same,T/C,"dose: 25.0 mg/kg/injection, schedule: Q04DX003 (ip), vehicle: saline with Tween-80",95 % of control
same,T/C,"dose: 37.5 mg/kg/injection, schedule: Q04DX003 (ip), vehicle: saline with Tween-80",95 % of control
O=[N+]([O-])c1cc([N+](=O)[O-])c(NN(c2ccc(Cl)cc2)c2ccc(Cl)cc2)c([N+](=O)[O-])c1,T/C,"dose: 50.0 mg/kg/injection, schedule: Q01DX009 (ip), vehicle: Klucel (hydroxypropylcellulose) (HPC)",109 % of control
same,T/C,[2],113 % of control
same,T/C,[3],118 % of control
same,T/C,[4],118 % of control
O=C1CN(Cc2ccccc2)CC(=O)N2CCCN12,T/C,"dose: 50.0 mg/kg/injection, schedule: Q01DX005 (ip), vehicle: saline with Tween-80",101 % of control
same,T/C,"dose: 100.0 mg/kg/injection, schedule: Q01DX005 (ip), vehicle: saline with Tween-80",90 % of control
same,T/C,"dose: 200.0 mg/kg/injection, schedule: Q01DX005 (ip), vehicle: saline with Tween-80",92 % of control
C=C(Cl)CSCCCS,T/C,"dose: 130.0 mg/kg/injection, schedule: Q01DX009 (ip), vehicle: saline",95 % of control
same,T/C,[5],104 % of control
same,T/C,"dose: 300.0 mg/kg/injection, schedule: Q01DX009 (ip), vehicle: saline",118 % of control
Nc1ncnc2c1ncn2C1CC(CO)C(O)C1O (configuration not stated),T/C,"dose: 6.25 mg/kg/injection, schedule: Q01DX009 (ip), vehicle: carboxymethylcellulose (CMC)",100 % of control
same,T/C,"dose: 12.5 mg/kg/injection, schedule: Q01DX009 (ip), vehicle: carboxymethylcellulose (CMC)",95 % of control
CCCCCCCCCCCCCCCCCCNC(=O)Nc1ccc(C)c(C)c1,T/C,[6],109 % of control
same,T/C,[7],109 % of control
same,T/C,"dose: 400.0 mg/kg/injection, schedule: Q04DX003 (ip), vehicle: saline with Tween-80",109 % of control
COc1cc2ccc3c(c2cc1OC)C=NCC3,T/C,"dose: 1.56 mg/kg/injection, schedule: Q01DX009 (ip), vehicle: saline",100 % of control
same,T/C,"dose: 1.56 mg/kg/injection, schedule: Q04DX003 (ip), vehicle: saline",95 % of control
same,T/C,"dose: 3.13 mg/kg/injection, schedule: Q01DX009 (ip), vehicle: saline",110 % of control
same,T/C,"dose: 3.13 mg/kg/injection, schedule: Q04DX003 (ip), vehicle: saline",100 % of control
same,T/C,"dose: 6.25 mg/kg/injection, schedule: Q01DX009 (ip), vehicle: saline",110 % of control
same,T/C,"dose: 6.25 mg/kg/injection, schedule: Q04DX003 (ip), vehicle: saline",104 % of control
Nc1ncnc2c1ncn2C1(CO)OC(CO)C(O)C1O (configuration not stated),T/C,[2],106 % of control
same,T/C,[8],115 % of control
same,T/C,"dose: 400.0 mg/kg/injection, schedule: Q01DX009 (ip), vehicle: Klucel (hydroxypropylcellulose) (HPC)",103 % of control
CN(C)C(=S)N(C)C,T/C,"dose: 100.0 mg/kg/injection, schedule: Q04DX003 (ip), vehicle: saline",100 % of control
same,T/C,"dose: 200.0 mg/kg/injection, schedule: Q04DX003 (ip), vehicle: saline",100 % of control
same,T/C,"dose: 400.0 mg/kg/injection, schedule: Q04DX003 (ip), vehicle: saline",118 % of control
CCCCOB=O,T/C,[6],109 % of control
same,T/C,[7],100 % of control
ClC1=C(Cl)C2(Cl)C(Br)C(Br)C1(Cl)C2(Cl)Cl (configuration not stated),T/C,"dose: 25.0 mg/kg/injection, schedule: Q04DX003 (ip), vehicle: other",118 % of control
same,T/C,"dose: 50.0 mg/kg/injection, schedule: Q04DX003 (ip), vehicle: other",109 % of control
same,T/C,[9],90 % of control
same,T/C,"dose: 100.0 mg/kg/injection, schedule: Q04DX003 (ip), vehicle: other",100 % of control and 104 % of control
same,T/C,[10],100 % of control
same,T/C,[4],90 % of control
same,T/C,"dose: 400.0 mg/kg/injection, schedule: Q01DX009 (ip), vehicle: saline with Tween-80",110 % of control
same,T/C,"dose: 400.0 mg/kg/injection, schedule: Q04DX003 (ip), vehicle: other",100 % of control
COc1cc2c(cc1OC)C(c1ccc(N=Cc3ccc(Cl)c(Cl)c3)cc1)N(C(=S)Nc1cc(Cl)ccc1Cl)CC2 (configuration not stated),T/C,[1],104 % of control
same,T/C,[11],93 % of control and 97 % of control
same,T/C,[9],95 % of control
same,T/C,[10],89 % of control
O=[N+]([O-])c1ccc(-c2nc(Cl)c3c(n2)CCCC3)o1,T/C,[11],95 % of control
same,T/C,[9],98 % of control
same,T/C,[10],97 % of control
S=c1nc[nH]c2nc[nH]c12.[Ag],T/C,[12],100 % of control
same,T/C,[5],108 % of control
same,T/C,[13],87 % of control
O=C(OCCCCOC(=O)c1cccc([N+](=O)[O-])c1)c1cccc([N+](=O)[O-])c1,T/C,"dose: 3.0 mg/kg/injection, schedule: Q04DX003 (ip), vehicle: saline with Tween-80",115 % of control
same,T/C,"dose: 6.0 mg/kg/injection, schedule: Q04DX003 (ip), vehicle: saline with Tween-80",110 % of control
same,T/C,"dose: 12.0 mg/kg/injection, schedule: Q04DX003 (ip), vehicle: saline with Tween-80",120 % of control
COC(=O)C(C#N)=N/C(=C/C=C1/N(C)c2ccccc2C1(C)C)c1ccccc1,T/C,[11],102 % of control
same,T/C,[9],96 % of control
same,T/C,[10],97 % of control
CC(=O)N1c2ccccc2Sc2cc(C(O)(C(F)(F)F)C(F)(F)F)ccc21,T/C,[1],86 % of control
same,T/C,[11],90 % of control
same,T/C,[9],90 % of control
COC(=O)C(=NO)C(=O)OC,T/C,[12],104 % of control
same,T/C,[5],96 % of control
same,T/C,[13],96 % of control
CCCCCCCCC(O)CCCC (configuration not stated),T/C,[3],91 % of control
same,T/C,[4],91 % of control
same,T/C,"dose: 400.0 mg/kg/injection, schedule: Q04DX003 (ip), vehicle: Klucel (hydroxypropylcellulose) (HPC)",100 % of control
Nc1nc(SCc2ccccn2)c2[nH]cnc2n1,T/C,"dose: 20.0 mg/kg/injection, schedule: Q04DX003 (ip), vehicle: Klucel (hydroxypropylcellulose) (HPC)",104 % of control
same,T/C,"dose: 30.0 mg/kg/injection, schedule: Q04DX003 (ip), vehicle: Klucel (hydroxypropylcellulose) (HPC)",104 % of control
same,T/C,"dose: 44.0 mg/kg/injection, schedule: Q04DX003 (ip), vehicle: Klucel (hydroxypropylcellulose) (HPC)",104 % of control
same,T/C,[2],107 % of control
same,T/C,[8],92 % of control
